Measured values reported in patent publication US11236052B2, “Aminobenzimidazole derivatives, treatments, and methods of inhibiting histone deacetylase” (TRANSLATIONAL DRUG DEVELOPMENT, LLC, priority 2017, dated 2022).
Where two headings read alike, the source gives them in different places.

Legend:
[1] = S9 in vitro half-life; format: in vitro ADME; settings: S9 fraction
[2] = system: MFE296; assay: CellTiter-Glo cell viability assay, MFE296; format: cell-based; settings: Uterine; for IC50: Homo sapiens, MFE-296, MFE296, 72 hours
Method: (§1) Cell Viability Assay—Cell viability was measured by the CellTiter-Glo® cell viability assay Promega (Madison, Wis.). The CellTiter-Glo® Luminescent Cell Viability Assay is a homogeneous method to determine the number of viable cells in culture based on quantitation of the ATP present, which signals the presence of metabolically active cells. Following treatment, CellTiter-Glo® is added to treatment wells and incubated at 37° C. luminescence values were measured at using a Molecular Devices Spectramax microplate reader.
(§2) Single Agent Studies—Cells were grown to 70% confluency, trypsinized, counted, and seeded in 96 well flat-bottom plates at a final concentration of 2.5×10^3-5×10^3 cells/well (Day 0). Cells were allowed to incubate in growth media for 24 hours. Treatment with the test agents began on Day 1 and continued for 72 hours. At the 72-hour time point, treatment-containing media was removed. Viable cell numbers are quantified by the CellTiter-Glo® cell viability assay as described above. Experiments were run with triplicate concentrations to determine growth inhibitory activity. Results from these studies were used to calculate an IC50 value (concentration of drug that inhibits cell growth by 50 percent of control) for each compound.
(§3) Data Collection—For single agent and combination studies, data from each experiment was collected and expressed as % Cell Growth using the following calculation: % Cell Growth=(ftest/fvehicle)×100
(§4) Where ftest is the luminescence of the tested sample, and fvehicle is the luminescence of the vehicle in which the drug is dissolved. Dose response graphs and IC50 values were generated using Prism 6 software (GraphPad).

[3] = system: K562; assay: CellTiter-Glo cell viability assay, K562; format: cell-based; settings: CML; for IC50: Homo sapiens, K562, 72 hours
Method: as §1, §2, §3, §4

[4] = system: Raji; assay: CellTiter-Glo cell viability assay, Raji; format: cell-based; settings: Lymphoma; for IC50: Homo sapiens, 72 hours
Method: as §1, §2, §3, §4

[5] = system: SUDHL-4; assay: CellTiter-Glo cell viability assay, SUDHL-4; format: cell-based; settings: Lymphoma; for IC50: Homo sapiens, SU-DHL-4, SUDHL-4, 72 hours
Method: as §1, §2, §3, §4

[6] = system: BC-1; assay: CellTiter-Glo cell viability assay, BC-1; format: cell-based; settings: Lymphoma; for IC50: Homo sapiens, BC1, BC-1, 72 hours
Method: as §1, §2, §3, §4

[7] = system: Ishikawa; assay: CellTiter-Glo cell viability assay, Ishikawa; format: cell-based; settings: Uterine; for IC50: Homo sapiens, 72 hours
Method: as §1, §2, §3, §4

[8] = system: RAMOS; assay: CellTiter-Glo cell viability assay, RAMOS; format: cell-based; settings: Lymphoma; for IC50: Homo sapiens, 72 hours
Method: as §1, §2, §3, §4

[9] = system: U251; assay: CellTiter-Glo cell viability assay, U251; format: cell-based; settings: GBM; for IC50: Homo sapiens, U-251, U251, 72 hours
Method: as §1, §2, §3, §4

[10] = system: H1650; assay: CellTiter-Glo cell viability assay, H1650; format: cell-based; settings: NSCLC; for IC50: Homo sapiens, NCI-H1650, H1650, 72 hours
Method: as §1, §2, §3, §4

[11] = system: KMS-34; assay: CellTiter-Glo cell viability assay, KMS-34; format: cell-based; settings: Myeloma; for IC50: KMS-34, 72 hours
Method: as §1, §2, §3, §4

[12] = system: Toledo; assay: CellTiter-Glo cell viability assay, Toledo; format: cell-based; settings: Lymphoma; for IC50: Homo sapiens, 72 hours
Method: as §1, §2, §3, §4

[13] = Pharmacokinetic studies in the mouse; format: in vivo; settings: for Vd: read-out: Vss; for Vd/F: read-out: Vz/F obs
Method: Plasma samples were collected from healthy mice and analyzed for levels of compound ID #1, ID #2, and ID #3 and reported in Table 5. In brief, compounds were individually and accurately weighed out to produce a stock solution in Dimethyl-sulfoxide (DMSO) at a concentration of 2 mg/mL and stored at −20° C. From the stock solution, a working stock was prepared by diluting it in Methanol-Water 50:50 (v/v) at 20 μg/mL for calibration curve preparation and stored at 4° C. Standards used for quantitation and quality control samples (QC's) were prepared on the same day of sample processing using blank plasma obtained from non-treated mice. For each analyte, standards were prepared through serial dilution of the working stock at concentrations of 0.1, 0.5, 1.0, 10, 50, 100, 500 and 1000 ng/mL; QC's were prepared at intermediate concentrations of 0.75, 7.5, 75 and 750 ng/mL. Plasma samples were stored at −80° C. until ready for analysis and then placed on ice for thawing. An aliquot of 20 μL for samples, standards and QC's, were transferred into a 96-well extraction plate according to a pre-defined layout. Appropriate volume of Methanol-Formic Acid 99.9-0.1 containing internal standard (Verapamil at 25 ng/mL) was added to each well and samples were extracted under vacuum. Eluent was then transferred into a LCMS plate for analysis using a suitable column for separation and MRM detection. Concentration of analytes was calculated based on the calibration curve and analyzed for pharmacokinetic parameters by using Non-compartmental analysis (NCA) using WinNonlin Phoenix software. Parameters such as Cmax, Tmax, half-life, AUC(0-last), AUC(0-∞), volume of distribution (Vss) and clearance (Cl/F) were reported.
The analogs were tested for pharmacokinetic analysis in the mouse with doses of 1 mg/kg for intravenous (IV) route and 5 mg/kg for oral (P0) route. […] Overall exposure following IV dose also favored compound ID #1 with AUCO-∞ 1488.1 hr*ng/mL whereas compound ID #2 and ID #3 were 329.1 and 1193.7 hr*ng/mL, respectively.

[14] = system: SNG-M; assay: CellTiter-Glo cell viability assay, SNG-M; format: cell-based; settings: Uterine; for IC50: 72 hours
Method: as §1, §2, §3, §4

[15] = plasma, 1.0 mg/kg IV, read-out: Half-life (converted)
[16] = plasma, 5.0 mg/kg PO, read-out: Half-life (converted)
[17] = plasma, iv, 1 mg/kg, 1.0 mg/kg IV, read-out: AUC0-∞
[18] = plasma, iv, 1 mg/kg, 1.0 mg/kg IV, read-out: Cmax
[19] = plasma, po, 5 mg/kg, 5.0 mg/kg PO, read-out: AUC0-∞
[20] = plasma, po, 5 mg/kg, 5.0 mg/kg PO, read-out: Cmax
[21] = plasma, po, 5 mg/kg, 5 mg/kg oral, read-out: AUC0-∞ (overall exposure following oral doses)

O=C(NO)c1ccc(Nc2nc3ccccc3n2CC2CCCCC2)cc1 [ID #1, 4-((1-(cyclohexylmethyl)-1H-benzo[d]imidazol-2-yl)amino)-N-hydroxybenzamide]
half-life [1]: 1.25 h | IC50 [2]: 4.37 µM | Improvement ID #1 over ID #3 Percent ([2]; MFE296): 65.29% | Improvement ID #1 over ID #3 fold ([2]; MFE296): 2.88 fold | Improvement ID #1 over ID #3 Percent ([3]; K562): 69.90% | Improvement ID #1 over ID #3 fold ([3]; K562): 3.32 fold | IC50 [3]: 1.58 µM | IC50 [4]: 1.83 µM | Improvement ID #1 over ID #3 Percent [4]: 62.11% | Improvement ID #1 over ID #3 fold [4]: 2.64 fold | IC50 [5]: 0.24 µM | Improvement ID #1 over ID #3 Percent ([5]; SUDHL-4): 94.24% | Improvement ID #1 over ID #3 fold ([5]; SUDHL-4): 17.38 fold | IC50 [6]: 1.79 µM | Improvement ID #1 over ID #3 Percent ([6]; BC-1): 63.69% | Improvement ID #1 over ID #3 fold ([6]; BC-1): 2.75 fold | IC50 [7]: 1.7 µM | Improvement ID #1 over ID #3 Percent [7]: 61.10% | Improvement ID #1 over ID #3 fold [7]: 2.57 fold | IC50 [8]: 1.38 µM | Improvement ID #1 over ID #3 Percent [8]: 52.08% | Improvement ID #1 over ID #3 fold [8]: 2.09 fold | Improvement ID #1 over ID #3 Percent ([9]; U251): 61.18% | Improvement ID #1 over ID #3 fold ([9]; U251): 2.58 fold | IC50 [9]: 1.58 µM | IC50 [10]: 6.61 µM | Improvement ID #1 over ID #3 Percent ([10]; H1650): 63.68% | Improvement ID #1 over ID #3 fold ([10]; H1650): 2.75 fold | Improvement ID #1 over ID #3 Percent ([11]; KMS-34): 55.15% | Improvement ID #1 over ID #3 fold ([11]; KMS-34): 2.23 fold | IC50 [11]: 0.61 µM | IC50 [12]: 0.81 µM | Improvement ID #1 over ID #3 Percent [12]: 74.77% | Improvement ID #1 over ID #3 fold [12]: 3.96 fold | AUC0-∞ ([13]; 1.0 mg/kg IV): 1488.05 ng·h/mL | AUC % Extrap ([13]; 1.0 mg/kg IV): 0.25% | Cl/F obs ([13]; 1.0 mg/kg IV): 11.5 mL/min/kg | Rsq (>0.85) ([13]; 1.0 mg/kg IV): 0.97 | half-life ([13]; 1.0 mg/kg IV): 3.70 h | AUC % Extrap ([13]; 5.0 mg/kg PO): 0.75% | Cmax ([13]; 5.0 mg/kg PO): 757.43 ng/mL | Rsq (>0.85) ([13]; 5.0 mg/kg PO): 0.99 | AUC(0-t) ([13]; plasma, 1.0 mg/kg IV): 1440 ng·h/mL | Tmax ([13]; plasma, 1.0 mg/kg IV): 0.08 h | half-life [13, 15]: 3.7 h | Vd ([13]; plasma, 1.0 mg/kg IV): 1.21 L/kg | AUC(0-t) ([13]; plasma, 5.0 mg/kg PO): 3220 ng·h/mL | CL/F ([13]; plasma, 5.0 mg/kg PO): 21 mL/min/kg | Tmax ([13]; plasma, 5.0 mg/kg PO): 0.5 h | bioavailability ([13]; plasma, 5.0 mg/kg PO): 53.4% | half-life [13, 16]: 3.39 h | Vd/F ([13]; plasma, 5.0 mg/kg PO): 6.16 L/kg | AUC(0-inf) [13, 17]: 1490 ng·h/mL | Cmax [13, 18]: 1290 ng/mL | AUC(0-inf) [13, 19]: 3970 ng·h/mL | Cmax [13, 20]: 757 ng/mL | AUC(0-inf) [13, 21]: 3970 ng·h/mL | Improvement ID #1 over ID #3 Percent [14]: 78.93% | Improvement ID #1 over ID #3 fold [14]: 4.75 fold | IC50 [14]: 1.7 µM

O=C(NO)c1ccc(Nc2nc3ccccc3n2C2CCCCCC2)cc1 [ID #3, 4-((1-cycloheptyl-1H-benzo[d]imidazol-2-yl)amino)-N-hydroxybenzamide]
half-life [1]: 1.22 h | IC50 [2]: 12.6 µM | IC50 [3]: 5.25 µM | IC50 [4]: 4.83 µM | IC50 [5]: 4.17 µM | IC50 [6]: 4.93 µM | IC50 [7]: 4.37 µM | IC50 [8]: 2.88 µM | IC50 [9]: 4.07 µM | IC50 [10]: 18.2 µM | IC50 [11]: 1.36 µM | IC50 [12]: 3.21 µM | AUC0-∞ ([13]; 1.0 mg/kg IV): 1193.68 ng·h/mL | AUC % Extrap ([13]; 1.0 mg/kg IV): 0.16% | Cl/F obs ([13]; 1.0 mg/kg IV): 14 mL/min/kg | Rsq (>0.85) ([13]; 1.0 mg/kg IV): 0.92 | half-life ([13]; 1.0 mg/kg IV): 2.37 h | AUC % Extrap ([13]; 5.0 mg/kg PO): 0.38% | Cmax ([13]; 5.0 mg/kg PO): 348.57 ng/mL | Rsq (>0.85) ([13]; 5.0 mg/kg PO): 1.00 | AUC(0-t) ([13]; plasma, 1.0 mg/kg IV): 1190 ng·h/mL | Tmax ([13]; plasma, 1.0 mg/kg IV): 0.08 h | half-life [13, 15]: 2.37 h | Vd ([13]; plasma, 1.0 mg/kg IV): 1.96 L/kg | AUC(0-t) ([13]; plasma, 5.0 mg/kg PO): 1640 ng·h/mL | CL/F ([13]; plasma, 5.0 mg/kg PO): 50.5 mL/min/kg | Tmax ([13]; plasma, 5.0 mg/kg PO): 0.25 h | bioavailability ([13]; plasma, 5.0 mg/kg PO): 27.6% | half-life [13, 16]: 2.99 h | Vd/F ([13]; plasma, 5.0 mg/kg PO): 13.1 L/kg | AUC(0-inf) [13, 17]: 1190 ng·h/mL | Cmax [13, 18]: 830 ng/mL | AUC(0-inf) [13, 19]: 1650 ng·h/mL | Cmax [13, 20]: 349 ng/mL | AUC(0-inf) [13, 21]: 1650 ng·h/mL | IC50 [14]: 8.07 µM
